Measured values: the RepoRT retention time repository
Where a name gives a salt, the structure may show the parent alone.

assay: RP, Waters ACQUITY UPLC HSS T3, 150 × 2.1 mm, 1.8 µm, 45 °C, 0.6 mL/min, estimated dead time 0.55 min; A: water + 0.1% formic acid, pH 3; B: acetonitrile + 0.1% formic acid, pH 3; gradient (min/%B) 0/1 0.1/1 10/55 10.15/65 10.30/75 10.45/85 10.60/95 10.70/100 11/100 11.55/100 11.65/1 11.70/1 11.80/1 11.90/1 12/1 12.10/1 12.15/1 12.65/1; settings: stereoisomer not certain

Point of comparison: `O=c1[nH]cnc2c1ncn2C1OC(CO)C(O)C1O` (stereo not given) [Inosine], LC retention time 1.61 min. Against it:
- O=C1NS(=O)(=O)c2ccccc21 [Saccharin] — 1.7-fold higher, 2.7 min
- O=C(O)CCCCCCC(=O)O [Suberic acid] — 2.8-fold higher, 4.46 min
- CC(CCC(=O)NCC(=O)O)C1CCC2C3CCC4CC(O)CCC4(C)C3CC(O)C12C (stereo not given) [Glycodeoxycholic acid] — 6.3-fold higher, 10.1 min
- CCC(C)(O)C(=O)O (stereo not given) [2-Hydroxy-2-methylbutyric acid] — 1.5-fold higher, 2.45 min
- NC(Cc1ccc(OS(=O)(=O)O)cc1)C(=O)O (stereo not given) [O-Sulfotyrosine] — within 1.5-fold, 1.5 min
- CC(C)C(O)C(=O)O (stereo not given) [2-Hydroxy-3-methylbutyric acid] — 1.7-fold higher, 2.74 min
- CC(C)(O)C(=O)O [2-Hydroxyisobutyric acid] — within 1.5-fold, 1.62 min
- O=C(O)c1ccc(O)cc1 [4-Hydroxybenzoic acid] — 2-fold higher, 3.16 min
- O=C(O)Cc1ccc(O)cc1 [4-Hydroxyphenylacetic acid] — 2.1-fold higher, 3.41 min
- O=C(O)C(O)c1ccc(O)cc1 (stereo not given) [p-Hydroxymandelic acid] — within 1.5-fold, 1.57 min
- CC12CCC3C(CC=C4CC(OS(=O)(=O)O)CCC43C)C1CCC2=O (stereo not given) [Dehydroepiandrosterone sulfate] — 4.9-fold higher, 7.92 min
- CC(=O)NC(CC(=O)O)C(=O)O (stereo not given) [N-Acetylaspartic acid] — 1.6-fold lower, 1 min
- O=C(O)Cc1cccc(O)c1 [3-Hydroxyphenylacetic acid] — 2.3-fold higher, 3.74 min
- CC(=O)NC(Cc1c[nH]c2ccccc12)C(=O)O (stereo not given) [N-Acetyltryptophan] — 3.1-fold higher, 4.96 min
- O=C1O[C@H]([C@@H](O)CO)C(O)=C1OS(=O)(=O)O [L-Ascorbic acid 2-sulfate] — 2.3-fold lower, 0.71 min
- O=C(O)c1cc(O)c(O)c(O)c1 [Gallic acid] — within 1.5-fold, 1.72 min
- Cn1c(=O)[nH]c(=O)c2c1[nH]c(=O)n2C [3,7-Dimethyluric acid] — within 1.5-fold, 1.94 min
- CC(=O)C1CCC2C3CC=C4CC(OS(=O)(=O)O)CCC4(C)C3CCC12C (stereo not given) [Pregnenolone sulfate] — 6.1-fold higher, 9.81 min
- O=c1[nH]c(=O)c2[nH]c(=O)[nH]c2[nH]1 [Uric acid] — within 1.5-fold, 1.12 min
- CC=C(C)C(=O)NCC(=O)O [Tiglylglycine] — 1.8-fold higher, 2.92 min
- NCCc1ccc(OS(=O)(=O)O)c(O)c1 [Dopamine 4-O-sulfate] — within 1.5-fold, 1.49 min
- CC(O)C1CCC2C3CCC4CC(OC5OC(C(=O)O)C(O)C(O)C5O)CCC4(C)C3CCC12C (stereo not given) [Pregnanediol-3-glucuronide] — 5.7-fold higher, 9.23 min
- Nc1ncnc2c1ncn2C1OC2COP(=O)(O)OC2C1O (stereo not given) [Adenosine 3',5'-cyclic monophosphate] — within 1.5-fold, 1.62 min
- CC(=CC(=O)O)C(=O)O [Citraconic acid] — within 1.5-fold, 1.73 min
- CCC(C)C(NC(C)=O)C(=O)O (stereo not given) [N-Acetylisoleucine] — 2.5-fold higher, 4.03 min
- Cn1c[n+](C2OC(CO)C(O)C2O)c2nc(N)[nH]c(=O)c21 (stereo not given) [7-Methylguanosine] — within 1.5-fold, 2.05 min
- CC(CC(=O)O)C(=O)O (stereo not given) [Methylsuccinic acid] — within 1.5-fold, 2.19 min
- CC(CCC(=O)NCC(=O)O)C1CCC2C3C(O)CC4CC(O)CCC4(C)C3CCC12C (stereo not given) [Glycoursodeoxycholic acid] — 5.2-fold higher, 8.4 min
- COc1cc(C(O)C(=O)O)ccc1O (stereo not given) [Vanillylmandelic acid] — within 1.5-fold, 1.97 min
- CC12CCC3C(CC=C4CC(OC5OC(C(=O)O)C(O)C(O)C5O)CCC43C)C1CCC2=O (stereo not given) [Dehydroisoandrosterone 3-glucuronide] — 4.6-fold higher, 7.43 min
- CC(=O)NC(Cc1ccccc1)C(=O)O (stereo not given) [N-Acetylphenylalanine] — 2.9-fold higher, 4.66 min
- CCC(C)C(=O)C(=O)O (stereo not given) [3-Methyl-2-oxovaleric acid] — 2-fold higher, 3.22 min
- O=C(O)/C=C/c1cccc(O)c1 [m-Coumaric acid] — 3-fold higher, 4.88 min
- CC(=O)NC(Cc1ccc(O)cc1)C(=O)O (stereo not given) [N-Acetyltyrosine] — 1.8-fold higher, 2.97 min
- O=C(O)c1cc(O)ccc1O [2,5-Dihydroxybenzoic acid] — 2-fold higher, 3.16 min
- CC(=O)Nc1ccc(OC2OC(C(=O)O)C(O)C(O)C2O)cc1 (stereo not given) [Acetaminophen glucuronide] — within 1.5-fold, 1.92 min
- O=C(O)c1cc(=O)[nH]c(=O)[nH]1 [Orotic acid] — 2-fold lower, 0.81 min
- CC(CC(=O)O)CC(=O)O [3-Methylglutaric acid] — 1.7-fold higher, 2.66 min
- O=C(O)CC(Nc1ncnc2c1ncn2C1OC(CO)C(O)C1O)C(=O)O (stereo not given) [Succinyladenosine] — within 1.5-fold, 2.31 min
- Cc1cc2nc3c(=O)[nH]c(=O)nc-3n(CC(O)C(O)C(O)CO)c2cc1C (stereo not given) [Riboflavin] — 2.4-fold higher, 3.82 min
- CC(CCC(=O)NCC(=O)O)C1CCC2C3CCC4CC(OS(=O)(=O)O)CCC4(C)C3CC(O)C12C (stereo not given) [Glycodeoxycholic acid-3-sulfate] — 5.6-fold higher, 8.94 min
- O=C(O)CNC(=O)c1ccccc1O [Salicyluric acid] — 2.7-fold higher, 4.39 min
- CCc1ccc(OS(=O)(=O)O)cc1 [4-Ethylphenylsulfate] — 3.6-fold higher, 5.73 min
- O=C(O)CCCCCC(=O)O [Pimelic acid] — 2.1-fold higher, 3.46 min
- CC(C)CC(=O)C(=O)O [Ketoleucine] — 2.2-fold higher, 3.52 min
- CC(C)(CO)C(O)C(=O)NCCC(=O)O (stereo not given) [Pantothenic acid] — within 1.5-fold, 2.31 min
- CC(CCC(=O)NCCS(=O)(=O)O)C1CCC2C3CCC4CC(OS(=O)(=O)O)CCC4(C)C3CCC12C (stereo not given) [Taurolithocholic acid 3-sulfate] — 5.5-fold higher, 8.93 min
- O=C1CCC(C(=O)O)N1 (stereo not given) [Pyroglutamic acid] — within 1.5-fold, 1.25 min
- O=S(=O)(O)Oc1ccc2[nH]ccc2c1 [5-Hydroxyindole sulfate] — 1.7-fold higher, 2.81 min
- O=C(O)C(O)Cc1c[nH]c2ccccc12 (stereo not given) [Indolelactic acid] — 3-fold higher, 4.86 min
- Cn1c(=O)c2c([nH]c(=O)n2C)n(C)c1=O [1,3,7-Trimethyluric acid] — 1.8-fold higher, 2.95 min
- O=C(O)CCCC(=O)O [Glutaric acid] — within 1.5-fold, 1.86 min
- O=C(O)CCC(=O)O [Succinic acid] — within 1.5-fold, 1.37 min
- NC(CCCCn1c(C=O)ccc1CO)C(=O)O (stereo not given) [Pyrraline] — 1.5-fold higher, 2.49 min
- CC(=O)NC(CCCN=C(N)N)C(=O)O [Na-Acetyl-L-arginine] — 1.8-fold lower, 0.91 min
- OCC1OC(OC2(CO)OC(CO)C(O)C2O)C(O)C(O)C1O (stereo not given) [Sucrose] — 2.4-fold lower, 0.68 min
- O=C(O)C(O)Cc1ccccc1 (stereo not given) [Phenyllactic acid] — 2.8-fold higher, 4.51 min
- CC(=O)NC(CCC(N)=O)C(=O)O (stereo not given) [N-Acetylglutamine] — 1.6-fold lower, 0.978 min
- O=C(O)CC(CC(=O)O)C(=O)O [1,2,3-Propanetricarboxylic acid] — within 1.5-fold, 1.38 min
- CC(C)C(=O)NCC(=O)O [Isobutyrylglycine] — within 1.5-fold, 2.07 min
- O=C(O)CC(C(=O)O)C(O)C(=O)O (stereo not given) [Isocitric acid] — 2.1-fold lower, 0.77 min
- O=C(O)C(O)Cc1ccc(O)cc1 (stereo not given) [4-Hydroxyphenyllactic acid] — 1.7-fold higher, 2.81 min
- O=C(O)CNC(=O)Cc1ccccc1 [Phenylacetylglycine] — 2.5-fold higher, 4.01 min
- CC(C)(O)CC(=O)O [3-Hydroxyisovaleric acid] — within 1.5-fold, 2.1 min
- CC1=CC(=O)NS(=O)(=O)O1 [Acesulfame] — within 1.5-fold, 1.9 min
- CC(CCC(=O)O)C1CCC2C3C(O)CC4CC(O)CCC4(C)C3CC(O)C12C (stereo not given) [Cholic acid] — 6.1-fold higher, 9.75 min
- O=C(O)CNC(=O)c1ccc(O)cc1 [4-Hydroxyhippuric acid] — 1.5-fold higher, 2.45 min
- Cc1ccc(OS(=O)(=O)O)cc1 [p-Cresol sulfate] — 2.6-fold higher, 4.2 min
- O=C(O)CC(O)C(=O)O (stereo not given) [Malic acid] — 2.1-fold lower, 0.752 min
- NCCc1ccc(O)c(OS(=O)(=O)O)c1 [Dopamine 3-O-sulfate] — within 1.5-fold, 1.56 min
- CC(CCC(=O)O)C(=O)O (stereo not given) [2-Methylglutaric acid] — 1.7-fold higher, 2.8 min
- CC(CCC(=O)NCC(=O)O)C1CCC2C3C(O)CC4CC(O)CCC4(C)C3CC(O)C12C (stereo not given) [Glycocholic acid] — 5.2-fold higher, 8.4 min
- CC(O)(CC(=O)O)CC(=O)O [3-Hydroxy-3-methylglutaric acid] — within 1.5-fold, 1.55 min
- Cn1c(=O)[nH]c2[nH]c(=O)n(C)c2c1=O [1,7-Dimethyluric acid] — 1.6-fold higher, 2.57 min
- Cn1c(=O)c2[nH]cnc2n(C)c1=O [Theophylline] — 1.7-fold higher, 2.76 min
- O=c1[nH]c(=O)c2ncn(C3OC(CO)C(O)C3O)c2[nH]1 (stereo not given) [Xanthosine] — within 1.5-fold, 1.83 min
- CC(CC(=O)O)C1CCC2C3C(O)CC4CC(O)CCC4(C)C3CC(O)C12C (stereo not given) [23-Norcholic acid] — 5.3-fold higher, 8.58 min
- O=C(O)C1OC(Oc2c[nH]c3ccccc23)C(O)C(O)C1O (stereo not given) [Indoxyl glucuronide] — 2.1-fold higher, 3.39 min
- CC(=O)NC(CCC(=O)O)C(=O)O (stereo not given) [N-acetylglutamic acid] — within 1.5-fold, 1.35 min
- CC(=O)NCCC(=O)NC(Cc1cnc[nH]1)C(=O)O [N-Acetyl-L-carnosine] — 1.8-fold lower, 0.92 min
- O=S(=O)(O)Oc1c[nH]c2ccccc12 [Indoxyl sulfate] — 2.1-fold higher, 3.4 min
- O=C(O)CCCCC(=O)O [Adipic acid] — 1.6-fold higher, 2.59 min
- O=C(O)CC(O)(CC(=O)O)C(=O)O [Citric acid] — within 1.5-fold, 1.12 min
- O=C(O)C=Cc1ccc(O)cc1 [4-Hydroxycinnamic acid] — 2.7-fold higher, 4.35 min
- O=C(O)C=C(CC(=O)O)C(=O)O [Cis-aconitic acid] — within 1.5-fold, 1.3 min
- CC(=O)Nc1ccc(OS(=O)(=O)O)cc1 [Acetaminophen sulfate] — within 1.5-fold, 2.26 min
- CC(CO)C(=O)O (stereo not given) [3-Hydroxyisobutyric acid] — within 1.5-fold, 1.59 min
- Nc1c(C(=O)NC(CC(=O)O)C(=O)O)ncn1C1OC(CO)C(O)C1O (stereo not given) [Succinylaminoimidazole carboxamide riboside] — within 1.5-fold, 1.65 min
- COc1cc(CC(=O)O)ccc1O [Homovanillic acid] — 2.4-fold higher, 3.8 min
